Experimental data taken from patent publication US20170158807A1, “EPOXY RESIN COMPOSITION FOR ELECTRONIC MATERIAL, CURED PRODUCT THEREOF AND ELECTRONIC MEMBER” (DIC CORPORATION, priority 2014, published 2017).

Columns and labels:
[1] = Viscosity of the liquid epoxy resin; format: physicochemical; conditions: epoxy resin as obtained
Protocol: In a flask equipped with a thermometer, a dropping funnel, a condenser tube, and a stirrer, while being purged with nitrogen gas, 43 g of 2,4,4′-trihydroxybiphenyl, 295 g of epichlorohydrin, and 103 g of n-butanol were charged and dissolved. After the temperature was raised to 40° C., 53 g of a 48% by mass sodium hydroxide aqueous solution was added over 8 hours. The temperature was then further raised to 50° C., and the mixture was allowed to react for further 1 hour. After the completion of the reaction, 83 g of water was added, the mixture was allowed to stand, and then the lower layer was disposed. After that, unreacted epichlorohydrin was removed by distillation at 150° C. under reduced pressure. To the obtained crude epoxy resin, 118 g of methyl isobutyl ketone was added to dissolve the epoxy resin. To the solution, 67 g of a 10% by mass sodium hydroxide aqueous solution was further added, the mixture was allowed to react at 80° C. for 2 hours, and then washing with water was repeated three times until the pH of the washing liquid became neutral. Next, the system was dehydrated by azeotropic distillation, and subjected to microfiltration, followed by removing the solvent by distillation under reduced pressure, whereby 63 g of 2,4,4′-triglycidyloxybiphenyl (A-1) which was the target epoxy resin was obtained. […]

[2] = Melt viscosity at 150° C. (ASTM D4287, ICI viscometer method); format: physicochemical; conditions: measurement temperature 150° C.
Protocol: 1) Melt viscosity at 150° C.: measured by the following apparatus according to ASTM D4287.
Apparatus name: MODEL CV-1S manufactured by Codex

| viscosity of liquid form [1] [Pa-s] | melt viscosity [2] [dPa·s] | SMILES |
| --- | --- | --- |
| 943 | 0.14 | c1cc(-c2ccc(OCC3CO3)cc2OCC2CO2)ccc1OCC1CO1 (stereo not shown) [Example A-1, 2,4,4′-triglycidyloxybiphenyl] |
|  | 0.27 | c1cc(-c2cc(OCC3CO3)cc(OCC3CO3)c2)ccc1OCC1CO1 (stereo not shown) [Example A-2, 3,4′,5-triglycidyloxybiphenyl] |

| SMILES | viscosity of liquid form [1] [Pa-s] | melt viscosity [2] [dPa·s] |
| --- | --- | --- |
| c1c(OCC2CO2)cc(-c2cc(OCC3CO3)cc(OCC3CO3)c2)cc1OCC1CO1 (stereo not shown) [Example A-3, 3,3′,5,5′-tetraglycidyloxybiphenyl] |  | 0.57 |
